Laboratory results taken from patent US20130023585A1, “Neuraminidase Inhibitors” (TSRL, INC., priority 2010, published 2013).
Read-outs that look alike come from different tables or passages of the source. Marks after values point to notes of the source that are not given here.

Assays:
[1] = cited from earlier work
[2] = tested on: Influenza A/NWS/33 (H1N1); assay type: in vivo, BALB/c mice; conditions: for Survivors/Total: twice a day for 5 days, observed 21 days
[3] = mouse, in vivo, 10 mg/kg/day
[4] = tested on: California/04/2009 (H1N1); test: microbe, parasite or virus in culture; assay type: cell-based; conditions: Influenza A virus, read-out: 50% effective concentration (EC50)
NWS/33 (H1N1) = test: microbe, parasite or virus in culture; assay type: cell-based; conditions: Influenza A virus, read-out: 50% effective concentration (EC50)
Brisbane/10/2007 (H3N2) = test: microbe, parasite or virus in culture; assay type: cell-based; conditions: Influenza A virus, read-out: 50% effective concentration (EC50)
Brisbane/59/2007 (H1N1) = test: microbe, parasite or virus in culture; assay type: cell-based; conditions: Influenza A virus, read-out: 50% effective concentration (EC50)
Victoria/3/75 (H3N2) = test: microbe, parasite or virus in culture; assay type: cell-based; conditions: Influenza A virus, read-out: 50% effective concentration (EC50)
[5] = tested on: Solomon Islands/03/2006 (H1N1); test: microbe, parasite or virus in culture; assay type: cell-based; conditions: Influenza A virus, read-out: 50% effective concentration (EC50)
Sichuan/379/99 = test: microbe, parasite or virus in culture; assay type: cell-based; conditions: unidentified influenza virus, read-out: 50% effective concentration (EC50)
[6] = tested on: Flu A Duck/MN/1525/81 (H5N1); test: microbe, parasite or virus in culture; assay type: cell-based; conditions: Influenza A virus, H5N1, MDCK, read-out: 50% effective concentration (EC50)
[7] = tested on: Flu A Vietnam/1203/2004 (H5N1) × A/Ann Arbor/6/60 (H1N1 core genes); test: microbe, parasite or virus in culture; assay type: cell-based; conditions: Influenza A virus, MDCK, read-out: 50% effective concentration (EC50)
Flu B Florida/4/2006 = test: microbe, parasite or virus in culture; assay type: cell-based; conditions: unidentified influenza virus, read-out: 50% effective concentration (EC50)
influenza virus = conditions: versus oseltamivir carboxylate; cited from earlier work
in vivo = conditions: mouse
[8] = for Plasma concentration of Zanamivir: iv dose 1 mg/kg

CCOC(=O)C1=C[C@@H](OC(CC)CC)[C@H](NC(C)=O)[C@@H](NC(=N)N)C1
oral bioavailability ([1]; oral): approximately 2%

CCC(CC)OC1C=C(C(=O)OC(OC(=O)C(N)C(C)C)c2ccccc2)CC(NC(=N)N)C1NC(C)=O (mixture of isomers) [GOC-Benzyl-Val]
AUC (mouse, in vivo, iv, 1 mg/kg): 0.867 ± 0.11 µg·h/mL | CL (mouse, in vivo, iv, 1 mg/kg): 31 mL/h | T1/2 (mouse, in vivo, iv, 1 mg/kg): 1.15 h | Vz (mouse, in vivo, iv, 1 mg/kg): 50.8 mL | AUC (mouse, in vivo, po, 10 mg/kg): 1.171 ± 0.357 µg·h/mL | CL (mouse, in vivo, po, 10 mg/kg): 195 mL/h | Cmax (mouse, in vivo, po, 10 mg/kg): 0.192 ± 0.048 µg/mL | T1/2 (mouse, in vivo, po, 10 mg/kg): 7.14 h | Tmax (mouse, in vivo, po, 10 mg/kg): 1.0 ± 0.0 h | Vz (mouse, in vivo, po, 10 mg/kg): 2014 mL

CCC(CC)OC1C=C(C(=O)OC(C)OC(=O)C(N)C(C)C)CC(NC(=N)N)C1NC(C)=O (mixture of isomers) [GOC-Me-Val]
MDD ± SD (mean day of death of mice that died prior to day 21) ([2]; 0.1 mg/kg/day): 10.0 ± 1.3 | protective from the lethal infection ([2]; 0.1 mg/kg/day): inactive | Survivors/Total ([2]; 0.1 mg/kg/day per oral): 0/10 | MDD ± SD (mean day of death of mice that died prior to day 21) ([2]; 1 mg/kg/day): 10.7 ± 0.6 | protective from the lethal infection ([2]; 1 mg/kg/day): 70% | weight loss during the infection (FIG. 2) ([2]; 1 mg/kg/day): Severe weight loss | Survivors/Total ([2]; 1 mg/kg/day per oral): 7/10** | protective from the lethal infection ([2]; 10 mg/kg/day): 100% | Survivors/Total ([2]; 10 mg/kg/day per oral): 10/10** | T1/2 (mice, IV, 1 mg/kg): 1.05 h | AUC (mouse, in vivo, iv, 1 mg/kg): 0.73 ± 0.06 µg·h/mL | CL (mouse, in vivo, iv, 1 mg/kg): 39 mL/h | Vz (mouse, in vivo, iv, 1 mg/kg): 59.5 mL | AUC (mouse, in vivo, po, 10 mg/kg): 3.205 ± 0.577 µg·h/mL | CL (mouse, in vivo, po, 10 mg/kg): 140 mL/h | Cmax (mouse, in vivo, po, 10 mg/kg): 0.561 ± 0.235 µg/mL | Vz (mouse, in vivo, po, 10 mg/kg): 276 mL | Mean Weight Change Day 5 [3]: −0.2 grams | Mean Weight Change Day 5, % of initial body weight (in parenthesis) [3]: −0.5% | Mean Weight Change, day 7 [3]: −0.3 grams | Mean Weight Change, day 7, % of initial body weight (in parenthesis) [3]: −1.6% | Survivors/Total [3]: 5/5

CCC(CC)O[C@@H]1C=C(C(=O)O)C[C@H](NC(=N)N)[C@H]1NC(C)=O [GOC, 4-guanidinio oseltamivir carboxylate]
MDD ± SD (mean day of death of mice that died prior to day 21) ([2]; 0.1 mg/kg/day): 9.0 ± 1.0 | protective from the lethal infection ([2]; 0.1 mg/kg/day): not active | Survivors/Total ([2]; 0.1 mg/kg/day per oral): 0/10 | MDD ± SD (mean day of death of mice that died prior to day 21) ([2]; 1 mg/kg/day): 9.8 ± 1.2 | protective from the lethal infection ([2]; 1 mg/kg/day): not active | Survivors/Total ([2]; 1 mg/kg/day per oral): 1/10 | protective from the lethal infection ([2]; 10 mg/kg/day): 100% | weight loss during the infection (FIG. 2) ([2]; 10 mg/kg/day): Some weight loss | Survivors/Total ([2]; 10 mg/kg/day per oral): 10/10** | EC50 ([4]; H1N1, MDCK cells, 3 to 4 days): 0.016 µM | EC50 (NWS/33 (H1N1); H1N1, MDCK cells, 3 to 4 days): < 0.032 µM | EC50 (Brisbane/10/2007 (H3N2); H3N2, MDCK cells, 3 to 4 days): > 0.32 µM | EC50 (Brisbane/59/2007 (H1N1); H1N1, MDCK cells, 3 to 4 days): 0.004 µM | EC50 (Victoria/3/75 (H3N2); H3N2, MDCK cells, 3 to 4 days): 0.038 µM | EC50 ([5]; H1N1, MDCK cells, 3 to 4 days): 0.0042 µM | EC50 (Sichuan/379/99; MDCK cells, 3 to 4 days): > 3.2 µM | EC50 [6]: 0.0012 µM | EC50 [7]: 0.00028 µM | EC50 (Flu B Florida/4/2006; MDCK cells, 3 to 4 days): 0.46 µM | AUC (mouse, in vivo, po, 10 mg/kg): 0.327 ± 0.098 µg·h/mL | Cmax (mouse, in vivo, po, 10 mg/kg): 0.073 ± 0.03 µg/mL | T1/2 (mouse, in vivo, po, 10 mg/kg): 1.65 h | Mean Weight Change Day 5 [3]: −0.3 grams | Mean Weight Change Day 5, % of initial body weight (in parenthesis) [3]: −2.1% | Mean Weight Change, day 7 [3]: −0.2 grams | Mean Weight Change, day 7, % of initial body weight (in parenthesis) [3]: −1.0% | times more potent in tissue culture of influenza virus replication (influenza virus): 10 times | bioavailability (in vivo; 10 mg/kg, BA (bioavailability of GOC)): 4.3% | Vd (in vivo; iv, 1 mg/kg): 0.0678 L | clearance (in vivo; iv, 1 mg/kg): 0.883 mL/min | AUC (in vivo; iv, 1 mg/kg, mice, GOC in plasma): 0.541 ± 0.229 µg·h/mL | half-life (in vivo; iv, 1 mg/kg, T1/2, mice): 0.88 h | AUC (in vivo; po, 10 mg/kg): 0.232 ± 0.043 µg·h/mL | Cmax (in vivo; po, 10 mg/kg, Cmax): 0.043 ± 0.029 µg/mL | half-life (in vivo; po, 10 mg/kg, T1/2): 1.21 h | Tmax (in vivo; po, 10 mg/kg): 3 ± 1.2 h | Tmax (in vivo; po, 10 mg/kg, mice, PO (fasted), GOC in plasma): 1.3 ± 1 h | oral bioavailability ([1]; oral): ~4.0%

CCC(CC)O[C@@H]1C=C(C(=O)O)C[C@H](N)[C@H]1NC(C)=O [Oseltamivir Carboxylate, Oseltamivir carboxylate]
EC50 ([4]; H1N1, MDCK): 0.3 µM | EC50 (NWS/33 (H1N1); H1N1, MDCK): 0.58 µM | EC50 (Brisbane/10/2007 (H3N2); H3N2, MDCK): > 0.32 µM | EC50 (Brisbane/59/2007 (H1N1); H1N1, MDCK): > 0.32 µM | EC50 (Victoria/3/75 (H3N2); H3N2, MDCK): > 0.32 µM | EC50 ([5]; H1N1, MDCK): > 0.32 µM | EC50 (Sichuan/379/99; MDCK): > 3.2 µM | EC50 [6]: 0.15 µM | EC50 [7]: 0.0028 µM | EC50 (Flu B Florida/4/2006; MDCK): > 3.2 µM | oral bioavailability ([1]; oral): ~4.0%

CCOC(=O)C1=C[C@@H](OC(CC)CC)[C@H](NC(C)=O)[C@@H](N)C1 [Oseltamivir]
MDD ± SD (mean day of death of mice that died prior to day 21) ([2]; 0.1 mg/kg/day): 9.7 ± 1.6 | protective from the lethal infection ([2]; 0.1 mg/kg/day): ineffective | Survivors/Total ([2]; 0.1 mg/kg/day per oral): 0/10 | protective from the lethal infection ([2]; 1 mg/kg/day): 100% | weight loss during the infection (FIG. 2) ([2]; 1 mg/kg/day): lost minimal weight | Survivors/Total ([2]; 1 mg/kg/day per oral): 10/10** | protective from the lethal infection ([2]; 10 mg/kg/day): 100% | Survivors/Total ([2]; 10 mg/kg/day per oral): 10/10** | Survivors/Total ([3]; BALB/c): 5/5 | Mean Weight Change Day 5 [3]: −0.3 grams | Mean Weight Change Day 5, % of initial body weight (in parenthesis) [3]: −1.6% | Mean Weight Change, day 7 [3]: −0.1 grams | Mean Weight Change, day 7, % of initial body weight (in parenthesis) [3]: −0.5%

CC(=O)N[C@H]1[C@H]([C@H](O)[C@H](O)CO)OC(C(=O)OC(OC(=O)[C@H](N)C(C)C)C(C)C)=C[C@@H]1NC(=N)N (stereo partly drawn) [ZAN-Isp-Val]
AUC ([8]; Oral, fasted mice, Zanamivir in plasma): 2177 (ng/ml) × hr | absorption after oral dosing ([8]; fasted animals): completely absorbed

CC(=O)N[C@H]1[C@H]([C@H](O)[C@H](O)CO)OC(C(=O)O)=C[C@@H]1N=C(N)N [Zanamivir]
Plasma concentration of Zanamivir ([8]; 0.03 hours): 4.0183 µg/mL | Plasma concentration of Zanamivir ([8]; 0.08 hours): 2.4875 µg/mL | Plasma concentration of Zanamivir ([8]; 0.25 hours): 0.6338 µg/mL | Plasma concentration of Zanamivir ([8]; 0.50 hours): 0.212 µg/mL | Plasma concentration of Zanamivir ([8]; 1.00 hours): 0.0786 µg/mL | Plasma concentration of Zanamivir ([8]; 2.00 hours): 0.014 µg/mL | AUC ([8]; mouse, in vivo, iv, 1 mg/kg): 202.4 (ng/ml) × hr | oral bioavailability ([1]; in vivo, po): about 2%
